Results taken from ChEMBL document CHEMBL1201862, “PubChem BioAssay data set” (2004).
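A five-concentration, 48-hour dose response in 96-well plates underlies each endpoint, interpolated linearly between surrounding concentrations. GI50: concentration for 50% inhibition of growth.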 Active and inactive are the calls of the source. Rule as the data show it: active = GI50 up to about 1.1 µM and inactive = higher.

Key:
Assay in all cases: DTP human tumour cell line panel, 48 h
LOX IMVI = test system: LOX IMVI
SK-MEL-5 = test system: SK-MEL-5
DU-145 = test system: DU-145
SF-295 = test system: SF-295
HCT-116 = test system: HCT-116
786-0 = test system: 786-0
T47D = test system: T47D
MCF7 = test system: MCF7
SK-MEL-28 = test system: SK-MEL-28
CAKI-1 = test system: CAKI-1
U-251 = test system: U-251
SNB-19 = test system: SNB-19
SK-MEL-2 = test system: SK-MEL-2
OVCAR-5 = test system: OVCAR-5
COLO 205 = test system: COLO 205
SNB-75 = test system: SNB-75
NCI-H226 = test system: NCI-H226
UO-31 = test system: UO-31
HOP-92 = test system: HOP-92

Measured: GI50

COc1nc2ccc(CNc3ccc(C(=O)O)cc3)cc2nc1OC
inactive: LOX IMVI > 10 µM | SK-MEL-5 > 10 µM | DU-145 > 10 µM | SF-295 > 10 µM | HCT-116 > 10 µM | 786-0 > 10 µM | T47D > 10 µM | MCF7 > 10 µM | SK-MEL-28 > 10 µM | CAKI-1 > 10 µM | U-251 > 10 µM | SNB-19 > 10 µM | SK-MEL-2 > 10 µM | OVCAR-5 > 10 µM | COLO 205 > 10 µM | SNB-75 > 10 µM | NCI-H226 > 10 µM

Cc1cc(=O)oc2c(C)c3oc(CBr)c(Br)c3cc12
inactive: LOX IMVI 12.6 µM | SK-MEL-5 18.2 µM | DU-145 42.9 µM | SF-295 17.2 µM | HCT-116 26.9 µM | 786-0 14.4 µM | T47D 24.2 µM | MCF7 33.1 µM | SK-MEL-28 44.4 µM | CAKI-1 17.2 µM | UO-31 18.6 µM | U-251 31.1 µM | SNB-19 31.6 µM | SK-MEL-2 36.1 µM | OVCAR-5 27.4 µM | COLO 205 28.2 µM | SNB-75 22.5 µM | NCI-H226 30 µM

CCN1C(=S)n2cccc2C1CC(=O)c1ccc(Cl)cc1 (configuration not stated)
inactive: LOX IMVI 58.9 µM | DU-145 > 100 µM | SF-295 63.7 µM | HCT-116 33 µM | 786-0 > 100 µM | T47D 56.6 µM | MCF7 24.8 µM | SK-MEL-28 54.1 µM | CAKI-1 > 100 µM | UO-31 42.9 µM | U-251 36 µM | SNB-19 75.3 µM | SK-MEL-2 58.2 µM | OVCAR-5 87.9 µM | SNB-75 54.7 µM | HOP-92 > 100 µM

CCOC(=O)c1nc[nH]c1/N=N/N(C)N
inactive: LOX IMVI 92.5 µM | SK-MEL-5 > 100 µM | DU-145 > 100 µM | SF-295 91.2 µM | HCT-116 > 100 µM | 786-0 84.7 µM | T47D 20.8 µM | MCF7 98.4 µM | SK-MEL-28 > 100 µM | CAKI-1 15.4 µM | UO-31 > 100 µM | U-251 65 µM | SK-MEL-2 > 100 µM | OVCAR-5 > 100 µM | COLO 205 36.6 µM | SNB-75 > 100 µM | NCI-H226 > 100 µM

Cc1cc2nc3ccccc3n2c2ccccc12
inactive: LOX IMVI > 10 µM | SK-MEL-5 > 10 µM | DU-145 > 10 µM | SF-295 > 10 µM | HCT-116 > 10 µM | 786-0 > 10 µM | T47D > 10 µM | MCF7 > 10 µM | SK-MEL-28 > 10 µM | CAKI-1 > 10 µM | U-251 > 10 µM | SNB-19 > 10 µM | SK-MEL-2 > 10 µM | OVCAR-5 > 10 µM | COLO 205 > 10 µM | SNB-75 > 10 µM | NCI-H226 6.17 µM

COc1ccc(CCN2CCN(CCCc3ccccc3)CC2)cc1
inactive: LOX IMVI > 100 µM | SK-MEL-5 23.2 µM | DU-145 > 100 µM | SF-295 > 100 µM | HCT-116 > 100 µM | 786-0 > 100 µM | T47D 34 µM | MCF7 > 100 µM | SK-MEL-28 > 100 µM | CAKI-1 > 100 µM | UO-31 55.6 µM | U-251 > 100 µM | SNB-19 > 100 µM | SK-MEL-2 > 100 µM | OVCAR-5 77.1 µM | COLO 205 22.9 µM | NCI-H226 > 100 µM

O=C(NC/C=C/Br)NC1CCNc2ccccc21 (configuration not stated)
inactive: LOX IMVI 25.6 µM | SK-MEL-5 19.5 µM | DU-145 52.1 µM | SF-295 45.4 µM | HCT-116 30.1 µM | 786-0 26.6 µM | T47D 36.5 µM | MCF7 19.3 µM | SK-MEL-28 33.7 µM | CAKI-1 42.1 µM | UO-31 27.8 µM | U-251 73.8 µM | SNB-19 41.3 µM | SK-MEL-2 30.1 µM | OVCAR-5 55.3 µM | COLO 205 18.7 µM | SNB-75 45 µM | NCI-H226 38.8 µM

COC1OC2COC(C)(C)OC2C2OC(C)(C)OC12 (configuration not stated)
inactive: SK-MEL-5 > 100 µM | DU-145 > 100 µM | SF-295 22.6 µM | HCT-116 > 100 µM | 786-0 18.6 µM | T47D > 100 µM | MCF7 23.6 µM | SK-MEL-28 > 100 µM | CAKI-1 14.6 µM | UO-31 > 100 µM | U-251 24.5 µM | SNB-19 21.8 µM | SK-MEL-2 > 100 µM | OVCAR-5 > 100 µM | COLO 205 46.5 µM | NCI-H226 23.8 µM

OC(C1CCCCCCCCCC1)C(O)C1CCCCCCCCCC1 (configuration not stated)
inactive: LOX IMVI > 100 µM | SK-MEL-5 > 100 µM | DU-145 > 100 µM | SF-295 > 100 µM | HCT-116 > 100 µM | 786-0 > 100 µM | T47D > 100 µM | MCF7 > 100 µM | SK-MEL-28 > 100 µM | CAKI-1 > 100 µM | UO-31 > 100 µM | U-251 > 100 µM | SNB-19 > 100 µM | SK-MEL-2 > 100 µM | OVCAR-5 > 100 µM | COLO 205 > 100 µM | SNB-75 > 100 µM | NCI-H226 > 100 µM

O=[N+]([O-])c1ccc(/N=N/c2c(O)ccc3cc(S(=O)(=O)O)cc(S(=O)(=O)O)c23)cc1
inactive: LOX IMVI > 100 µM | SK-MEL-5 > 100 µM | DU-145 > 100 µM | SF-295 > 100 µM | HCT-116 > 100 µM | 786-0 > 100 µM | T47D > 100 µM | SK-MEL-28 > 100 µM | CAKI-1 > 100 µM | UO-31 > 100 µM | U-251 > 100 µM | SNB-19 > 100 µM | SK-MEL-2 > 100 µM | OVCAR-5 > 100 µM | COLO 205 > 100 µM | SNB-75 > 100 µM | NCI-H226 > 100 µM | HOP-92 > 100 µM

Cc1c(S(=O)(=O)N/C(=N\O)Nc2ccc(Cl)cc2)sc2ccc(Cl)cc12
inactive: LOX IMVI 17 µM | SK-MEL-5 14.1 µM | DU-145 23.3 µM | SF-295 17.6 µM | HCT-116 13.9 µM | 786-0 17.5 µM | T47D 19 µM | SK-MEL-28 16.4 µM | CAKI-1 17.5 µM | UO-31 35.8 µM | U-251 16.1 µM | SNB-19 18.2 µM | SK-MEL-2 18.7 µM | OVCAR-5 18.1 µM | COLO 205 15.9 µM | SNB-75 18.7 µM | NCI-H226 17.7 µM | HOP-92 14.6 µM

COC1=C(Br)[C@H](O)[C@@]2(C=C1Br)CC(C(=O)NCCCCCNC(=N)N)=NO2 [APLYSINAMISINE II]
inactive: LOX IMVI > 10 µM | SK-MEL-5 > 10 µM | DU-145 > 10 µM | SF-295 > 10 µM | HCT-116 > 10 µM | 786-0 > 10 µM | T47D > 10 µM | MCF7 > 10 µM | SK-MEL-28 > 10 µM | UO-31 > 10 µM | U-251 > 10 µM | SNB-19 > 10 µM | SK-MEL-2 > 10 µM | OVCAR-5 > 10 µM | COLO 205 > 10 µM | SNB-75 6.79 µM | NCI-H226 > 10 µM
